{"source": "patent US4414205A", "about": "“Cell growth inhibitory substances” (University Patents, Inc., priority 1981, dated 1983)", "key": {"[1]": {"system": "P388 leukemia", "assay": "Mouse tumor system P388 leukemia (murine P388 lymphocytic leukemia)", "type": "in vivo", "protocol": "(§1) A description of the antitumor tests, described herein, appears in the reference by R. I. Geran, N. H. Greenberg, M. M. MacDonald, A. M. Schumacher and B. J. Abbott, Cancer Chemother. Rep. Part 3, Vol. 3(2): 1-103 (1972).\n(§2) ^a tumors were inoculated intraperitoneally (i.p.)\n(§3) ^b compounds were administered i.p. everyday for 9 days starting on\n(§4) the first day after tumor inoculation.\n(§5) ^c Calculated from median survival times; Nos. in parentheses = No. o\n(§6) cures/total No. of mice in group. Cured mice survive for at least 60 days"}, "[2]": {"system": "B16 melanoma", "assay": "Mouse tumor system B16 melanoma (NCI murine B16 melanoma test)", "type": "in vivo", "protocol": "as §1, §2, §3, §4, §5, §6"}}, "data": [{"substance": "Dolastatin 1", "values": [{"measurement": "life span in percent of controls", "setting": "[1]; P388 leukemia inoculated i.p., compound i.p. every day for 9 days at optimal dose, from median survival times", "result": "188% of controls"}, {"measurement": "optimal dose", "setting": "[1]; P388 leukemia, i.p. every day for 9 days starting first day after tumor inoculation", "result": 11, "unit": "μg/kg/injection"}, {"measurement": "life extension", "setting": "[1]; murine P388 lymphocytic leukemia, intraperitoneal doses of 11 μg/kg/day", "result": 88, "unit": "%"}, {"measurement": "No. of cures/total No. of mice in group", "setting": "[2]; B16 melanoma i.p., optimal dose i.p. daily for 9 days, cured mice survive at least 60 days", "result": "3/10"}, {"measurement": "life span in percent of controls", "setting": "[2]; B16 melanoma inoculated i.p., compound i.p. every day for 9 days at optimal dose, from median survival times", "result": "240% of controls"}, {"measurement": "optimal dose", "setting": "[2]; B16 melanoma, i.p. every day for 9 days starting first day after tumor inoculation", "result": 11, "unit": "μg/kg/injection"}, {"measurement": "curative response", "setting": "[2]; murine B16 melanoma, intraperitoneal dose of 11 μg/kg/day", "result": 30, "unit": "%"}]}]}
